Tests used:
[1] = target: BRD4(1) (Homo sapiens, UniProt O60885); test: AlphaScreen selectivity screen, BRD4 (1); type: binding
Description: (§1) IC50 (µM) IC50 (µM) IC50 (µM) IC50 (µM) (µM) (µM) (µM)
(§2) Supplementary Table 1. […]

[2] = target: CECR2 (Homo sapiens, UniProt Q9BXF3); test: AlphaScreen selectivity screen, CECR2; type: binding
Description: as §1, §2

[3] = Metabolic stability in primary human hepatocytes; type: in vitro ADME
Description: page 98: II.IX in vitro Metabolism Studies Metabolic stability studies were carried out exposing nominated compounds to samples of primary human hepatocytes . Compounds were analysed by LC -MS for loss of parent compound at 0, 10, 30, 60 and 120-minute time points and analysis of metabolites formed . […] 1000000 500000 0 0 min 10 min 30 min 60 min 120 min Supplementary Figure 8.

[4] = target: T1, endogenous MLLT1 in HEK293 cells (Homo sapiens, UniProt Q03111); test: Cellular thermal shift assay (CETSA), HEK293 cells; type: cell-based; details: Western blot
T1 construct: endogenous in cells; host or cells: HEK293
Description: Supplementary Table 2. Thermal stabilisation of compound 1, 92 and Bromosporine with recombinant human bromodomain proteins. *50 µM compound concentration. †10 µM compound […]
II.VIII Cellular Thermal Shift Assay[6]
HEK293 and MV4;11 cells were cultured at 37 °C in a humidified 5% CO2 atmosphere in DMEM Medium containing 10% FBS, respectively. Cells were grown until approximately […]
DMSO final concentrati on) for 30 minutes. Cells were then collected, washed with PBS, transferred in PCR tubes, and pelleted by centrifugation (300 g, 3 min, RT.) The PBS was removed, and the cell pellets heated at the indicated temperature for 3 minutes in a PCR machine (UNO96 , VMR) and then placed on ice. Lysis buffer (50 mM Tris pH 7.5, 0.8% v/v NP-40, 5% v/v glycerol, 1.5 mM MgCl2, 100 mM NaCl, 25 mM NaF, 1mM Na3VO4, 1mM PMSF, 1mM DTT, 10 μg/mL TLCK, 1 μg/mL Leupeptin, 1 μg/mL Aprotinin, 1 μg/mL soy bean trypsin, ≥250 units/ mL Benzonase) was added and the cells lysed by 3 freeze -thaw cycles in liquid nitrogen. Aggregated proteins were removed by centrifugation (17000 g, 20 min, 4 °C) and the protein concentration of the retained soluble fraction determined. 4× sample loading buffer (Bio-Rad) containing 20% v/v DTT was added and samples were heated for 6 min at 90 °C prior to separation by SDS -PAGE. […]

[5] = target: TAF1 (Homo sapiens, UniProt P21675); test: AlphaScreen selectivity screen, TAF1; type: binding
[6] = target: T2, MLLT3 YD (Homo sapiens, UniProt P42568); test: Isothermal titration calorimetry (ITC), MLLT3 YD; type: binding
T2 construct: made in house; host or cells: E. coli Rosetta
Description: Supplementary Table 1. AlphaScreen selectivity screen of compound 92 over other acyllysine […]
II.III Isothermal Titration Calorimetry (ITC)
Experiments were carried out on a Nano -ITC Standard Volume Instrument (TA Instruments).
All experiments were carried out at 25 °C in 20 mM HEPES pH 7.5, 150 mM NaCl, 0.5 mM TCEP and 5% glycerol. Protein soluti ons were buffer exchanged by gel filtration. The titrations were conducted using an initial injection of 2 μL followed by 32 injections of 8 μL.
Background dilution heat was subtracted from each experiment. Thermodynamic parameters […]
changes in free energy, enthalpy and entropy respectively. Independent single site binding models were employed in data analysis.
(also on this page, place not known: ac yllysine Nano-ITC -T 1/ KB. ΔH Molar&ratio&[injectant/cell] Time&[s] Corrected&Heat&Rate&[ucal/s] Experiment&1 K Experiment&2 K K)
(1 picture or pasted object on this page, not shown here)

[7] = target: T3, YEATS4 (Homo sapiens, UniProt O95619); test: AlphaScreen selectivity screen, YEATS4; type: binding
T3 construct: made in house; host or cells: E. coli Rosetta
Description: as §1, §2

TAF1, sequence (P21675 1522-1656): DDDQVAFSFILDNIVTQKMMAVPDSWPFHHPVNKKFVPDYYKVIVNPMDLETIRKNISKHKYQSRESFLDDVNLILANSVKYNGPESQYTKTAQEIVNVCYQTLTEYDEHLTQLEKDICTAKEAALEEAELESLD
CECR2, sequence (Q9BXF3 434-538 limits assumed): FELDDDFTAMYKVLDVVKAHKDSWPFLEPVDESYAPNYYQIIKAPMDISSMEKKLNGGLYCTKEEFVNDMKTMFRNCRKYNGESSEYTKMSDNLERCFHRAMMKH
T3 sequence (O95619 15-158 limits assumed): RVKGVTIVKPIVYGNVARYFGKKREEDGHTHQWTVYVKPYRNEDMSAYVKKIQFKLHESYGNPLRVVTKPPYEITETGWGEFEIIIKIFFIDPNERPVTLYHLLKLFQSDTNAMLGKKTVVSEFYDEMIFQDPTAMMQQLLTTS
T1 sequence (Q03111 whole entry): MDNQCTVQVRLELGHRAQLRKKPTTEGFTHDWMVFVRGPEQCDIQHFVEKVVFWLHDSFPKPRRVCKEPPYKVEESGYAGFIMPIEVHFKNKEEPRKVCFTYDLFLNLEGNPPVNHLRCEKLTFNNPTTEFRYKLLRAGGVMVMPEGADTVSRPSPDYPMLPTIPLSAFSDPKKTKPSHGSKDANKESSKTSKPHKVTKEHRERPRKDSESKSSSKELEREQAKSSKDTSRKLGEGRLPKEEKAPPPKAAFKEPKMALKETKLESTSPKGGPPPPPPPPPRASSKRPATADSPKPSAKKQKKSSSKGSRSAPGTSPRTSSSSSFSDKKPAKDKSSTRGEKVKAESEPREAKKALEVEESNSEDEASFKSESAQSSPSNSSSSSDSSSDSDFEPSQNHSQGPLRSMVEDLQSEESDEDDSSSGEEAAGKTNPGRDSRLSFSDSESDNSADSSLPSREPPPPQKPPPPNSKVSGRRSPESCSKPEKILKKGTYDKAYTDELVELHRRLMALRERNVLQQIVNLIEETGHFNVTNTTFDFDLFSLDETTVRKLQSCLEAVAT
T2 sequence (P42568 1-138 limits assumed): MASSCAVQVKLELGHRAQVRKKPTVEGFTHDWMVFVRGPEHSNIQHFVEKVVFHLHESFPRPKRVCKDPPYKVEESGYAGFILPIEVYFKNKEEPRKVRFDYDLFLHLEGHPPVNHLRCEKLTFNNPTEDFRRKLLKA

**Q.** What does the source list for `C[C@H]1CCCN1Cc1nc2cc(NC(=O)c3ccc4c(cnn4C)c3)ccc2[nH]1` [Compound 92]?
**A.** inhibition of BRD4 (I) ([1]; 10 μM using AS): no inhibition; IC50 ([1]; AlphaScreen selectivity screen): > 10 µM; inhibition of CECR2 ([2]; 10 μM using AS): no inhibition; IC50 ([2]; AlphaScreen selectivity screen, read-out: CECR2 (2) IC50): > 10 µM; parent remaining after 60 min ([3]; 60 min): 48%; half-life ([3]; human, read-out: metabolic stability t1/2): 53 min; heat shock stabilisation of endogenous MLLT1 (CETSA) [4]: stabilisation; inhibition of TAF1 ([5]; 10 μM using AS): no inhibition; IC50 ([5]; AlphaScreen selectivity screen): > 10 µM; Kd [6]: 0.077 µM; IC50 [7]: > 10 µM

Reference: publication PMC6348381, “Discovery of an MLLT1/3 YEATS Domain Chemical Probe” (Angewandte Chemie (International Ed. in English), 2018)
